One experiment has as its target T1, SULT2A1 (Homo sapiens, UniProt Q06520).
T1 sequence (Q06520 1-285): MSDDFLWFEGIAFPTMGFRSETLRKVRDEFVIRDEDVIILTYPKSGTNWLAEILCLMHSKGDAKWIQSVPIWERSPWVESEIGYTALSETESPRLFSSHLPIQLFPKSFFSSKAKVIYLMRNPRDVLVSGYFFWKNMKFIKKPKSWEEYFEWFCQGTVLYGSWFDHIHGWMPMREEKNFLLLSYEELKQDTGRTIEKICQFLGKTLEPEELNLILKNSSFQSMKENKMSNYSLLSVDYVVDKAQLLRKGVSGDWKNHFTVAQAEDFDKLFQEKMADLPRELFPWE
Format: biochemical.

Another experiment concerns the target SULT1A1 (Homo sapiens, UniProt P50225). Format: biochemical.

SULT1A1, sequence (P50225 whole entry): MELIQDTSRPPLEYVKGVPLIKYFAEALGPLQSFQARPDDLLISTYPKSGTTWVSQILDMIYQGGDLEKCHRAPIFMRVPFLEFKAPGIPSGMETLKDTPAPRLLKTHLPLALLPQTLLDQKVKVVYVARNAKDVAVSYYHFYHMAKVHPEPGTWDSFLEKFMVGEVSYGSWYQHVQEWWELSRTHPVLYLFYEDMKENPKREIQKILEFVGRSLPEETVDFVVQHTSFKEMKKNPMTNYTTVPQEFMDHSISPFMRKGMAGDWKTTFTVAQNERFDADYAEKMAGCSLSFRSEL

One may read the Ki as the dissociation constant of the complex between target and ligand, obtained from inhibition or displacement. The low end stands for a stronger hold on the target, the high end for a looser hold on the target. As for `Cc1cccc(Nc2ccccc2C(=O)O)c1C` [Mef, Mefenamic acid], the Ki was determined as 14 µM at SULT2A1 and 0.027 µM on SULT1A1.

These data come from article PMC6625639 (Biochemical pharmacology, 2018).
